Data taken from patent US7652037B2, “Methods of lowering lipid levels in a mammal” (City Of Hope, priority 2003, dated 2010).

What was measured:
STZ-Diabetic Rats [1] = experiment: Tail tendon collagen crosslinking, fluorescence (pepsin digestion) and acid solubility; type: in vivo, rat; conditions: diabetic rats compared with untreated diabetic animals
Description: Isolation and preparation of tail tendon collagen was performed according to Kochakian et al., Diabetes 45:1694-1700, 1996. The relative degree of crosslinking and AGE formation in collagen was assessed by pepsin digestion and acid solubility. Pepsin digestion was performed as described previously by Stefek et al., Biochim. Biophys. Acta 1502:398-404, 2000. Briefly, collagen samples of 10 mg from individual rats were digested with pepsin (50 μg/mL in 0.5 mol/l acetic acid) for 24 hours at 37° C. After digestion, the samples were centrifuged at 3000 rpm for 30 minutes at 4° C. and the clear supernatant containing the digested collagen was collected. One hundred microliter aliquots of the supernatant were mixed with 900 μL PBS buffer for measurement of the fluorescence of the sample at 365 nm excitation and 418 nm emission. The hydroxyproline content of the supernatant was calculated following acid hydrolysis using a microassay method according to known methods (Creemers et al., Biotechniques 22:656-658, 1997).
The acid solubility of tail tendon collagen was measured by a modification of the method outlined in Yang et al., Arch. Biochem. Biophys. 412:42-46, 2003. Briefly, samples of about 2 mg collagen were weighed and solubilized in 0.05 M acetic acid overnight at 4° C. The suspensions were centrifuged at 20,000 g 60 minutes at 4° C. and the supernatants and pellets were separated for analysis of hydroxyproline content following acid hydrolysis. Acid solubility was calculated as the percentage of hydroxyproline in the supernatant divided by the total hydroxyproline content in the pellet and the supernatant.

STZ-Diabetic Rats [2] = experiment: Body weight and glycemia in STZ-diabetic rats (Examples 10 and 14); type: in vivo, rat; conditions: for Body Weight / HbA1c / Plasma Glucose: 50 mg/L in drinking water, 32 weeks; for effect on hyperglycemia and body weight gains: either ND or D rats
Description: (§1) Diabetes was induced in male Sprague-Dawley rats by a single i.p. injection of STZ (65 mg/kg in citrate buffer, pH 4.5) after an overnight fast. Non-diabetic animals were injected with citrate buffer only. One week after STZ injection, only animals with >20 mmol/L plasma glucose were classified as diabetic and included in the study. Diabetic rats were divided randomly into the following treatment groups: diabetic untreated (D); and two diabetic treatment groups, receiving either LR-9 (D+LR-9) or LR-74 (D+LR-74) at 50 mg/L in drinking water. Three non-diabetic groups were studied concurrently: one untreated non-diabetic group (ND), and two non-diabetic groups treated with either LR-9 (ND+LR-9) or LR-74 (ND+LR-74) at 50 mg/L in drinking water.
(§2) Both plasma glucose and body weight were checked before administration of the drug, and no differences were detected among the three diabetic treatment groups or among the three non-diabetic groups. All animals were housed individually and were given free access to food and water. Glycemic control and body weights were monitored periodically. To limit hyperglycemia and ensure that animals maintained body weight, diabetic animals received 3 IU of ultralente insulin two to three times per week. The study was carried out over 32 weeks. Progression of renal dysfunction was assessed by measuring urinary albumin and plasma creatinine concentrations according to known methods. Figarola et al., Diabetologia 46:1140-115, 2003.
as §2, with “Rats were treated and divided into treatment groups as described in Example 10. Both” for “Both”, “weeks.” for “weeks. Progression of renal dysfunction was assessed by measuring urinary albumin and plasma creatinine concentrations according to known methods. Figarola et al., Diabetologia 46:1140-115, 2003.”

[3] = Carbonyl trapping activity; conditions: compared with AG, PM and LR-90
STZ-Diabetic Rats [4] = experiment: Plasma lipids and plasma lipid hydroperoxides in STZ-diabetic rats (Example 13); type: in vivo, rat; conditions: for reduction of plasma lipid hydroperoxides: diabetic animals; for reduction in plasma cholesterol / reduction in plasma triglycerides: diabetic rats compared with untreated diabetic animals; for plasma cholesterol / plasma triglycerides: treated diabetic rats, means/SEM; for plasma cholesterol: untreated diabetic 136±13; for plasma triglycerides: untreated diabetic 598±110
Description: as §1
At 32 weeks of the study, the rats were killed by over-anesthetization with isoflourane and cardiac puncture. Blood samples were collected from each animal and transferred accordingly into heparinized vacutainer tubes and were later centrifuged for plasma isolation. Aliquots of these plasma samples were stored at −70° C. until the time of analysis. Kidneys were removed immediately, decapsulated and rinsed in PBS buffer. Sections of the left kidneys were stored in 10% neutral buffered formalin for subsequent microscopic examinations and AGE immunohistochemistry. Sections of abdominal skin and tail of each individual rat were removed, rinsed in PBS buffer and stored at −70° C. for subsequent AGE quantification and crosslinking analyses.

Molecule	fluorescence and crosslinking of tail tendon collagen (pepsin digestion) (STZ-Diabetic Rats [1])	Body Weight (STZ-Diabetic Rats [2]; diabetic (D) rats)	HbA1c (STZ-Diabetic Rats [2]; diabetic (D) rats)	Plasma Glucose (STZ-Diabetic Rats [2]; diabetic (D) rats)	effect on hyperglycemia and body weight gains (STZ-Diabetic Rats [2])	Body Weight (STZ-Diabetic Rats [2]; non-diabetic (ND) rats)	HbA1c (STZ-Diabetic Rats [2]; non-diabetic (ND) rats)	Plasma Glucose (STZ-Diabetic Rats [2]; non-diabetic (ND) rats)	carbonyl trapping activities [3]	reduction of plasma lipid hydroperoxides (STZ-Diabetic Rats [4])	reduction in plasma cholesterol (STZ-Diabetic Rats [4])	reduction in plasma triglycerides (STZ-Diabetic Rats [4])	plasma cholesterol (STZ-Diabetic Rats [4])	plasma triglycerides (STZ-Diabetic Rats [4])
CC(C)(Oc1ccc(NC(=O)c2ccc3ccccc3c2)cc1)C(=O)O [LR-9, 4-(2-napthylcarboxamido) phenoxyisobutyric acid]	significant reduction	288.0 ± 29.3 g	2.0 ± 0.1 %	27.1 ± 0.5 mmol/L	no effect	681.0 ± 4.6 g	0.9 ± 0.1%	8.2 ± 0.5 mmol/L	weaker	35%	≤ 30%	≤ 60%	96 ± 5 mg/dL	239 ± 50 mg/dL
CC(Oc1cccc2cccnc12)C(=O)O (centres unmarked) [LR-74, 2-(8-quinolinoxy) propionic acid]	significant reduction	314.7 ± 21.6 g	2.1 ± 0.1 %	26.9 ± 0.6 mmol/L	no effect	744.0 ± 25.8 g	0.9 ± 0.1%	6.8 ± 0.4 mmol/L	weaker	45%	approximately 30%	~70%	93 ± 2 mg/dL	161 ± 29 mg/dL
methylene bis(4,4′-(2-chlorophenylureidophenoxyisobutyric acid) [LR-90]	significant reduction	–	–	–	–	–	–	–	–	–	–	–	–	–
